Reference: patent US20220133701A1, “METHODS OF TREATING PAIN” (Yeda Research and Development Co. Ltd., priority 2019, published 2022)

Assays:
SNI mice = assay: Spared nerve injury (SNI) model of neuropathic pain, paw withdrawal threshold (PWT) by Von Frey test; format: in vivo, mouse; conditions: SNI mice, viral (AAV9) knockdown followed by SNI, from day 60 onward, vs shCtrl (FIG. 4E)
Protocol: Chronic neuropathic pain was assessed using the spared nerve injury (SNI) model^13. Mice were anaesthetized with Ketamine/Xylazine (10 mg/kg body weight, intraperitoneal). The skin on the lateral surface of the thigh was incised and a section was made directly through the biceps femoris muscle in order to expose the sciatic nerve and its three terminal branches: the sural, common peroneal and tibial nerves. The SNI procedure comprised an axotomy and ligation of the tibial and common peroneal nerves leaving the sural nerve intact. The peroneal and the tibial nerves were tight-ligated and sectioned distal to the ligation. […] Following, mice were evaluated over a period of three months.
Von Frey tests of sensitivity to mechanical stimuli were conducted as previously described [Marvaldi et al. Dev Neurobiol 75, 217 (2015)]. Briefly, mice were placed in acrylic chambers suspended above a wire mesh grid and allowed to habituate to the testing apparatus for one hour prior to experiments. When the mouse was calm, the von Frey filaments were pressed against the plantar surface of the paw until the filament buckled and held for a maximum of 3 seconds. A positive response was noted if the paw was sharply withdrawn on application of the filament. Testing began with filament target force 13.7 milliNewtons and progressed according to an up-down method. 2 gram Von Frey filaments were used to assess sensitivity to noxious mechanical stimulation, scoring mice responses as follows: 0, no response; 1, visible signs of discomfort without leg withdrawal; 2, withdrawal of the leg.

importin α3 = assay: Western blot of importin α3 in HEK cells transduced with AAV9 constructs; format: cell-based; conditions: shα3 vs shCtrl, α3OE vs GFP (FIGS. 3A-C)
Protocol: Transfection and Western blot analysis: Knockdown and overexpression constructs were tested in HEK or N2A cells transfected using JetPEI (Polyplus) according to manufacturer's instructions and lysed 48 hours later in RIPA buffer supplemented with protease inhibitors (Complete, Roche). For Western blot analysis, 5 μg of protein was separated on TGX Protean 5-15% gradient gels (Biorad) and transferred to nitrocellulose membranes. Membranes were blocked with 5% dried milk-TBST and probed overnight with an importin α3 antibody (1:5000) and GAPDH (MAB374, Millipore, 1:5000) as a loading control in 2% milk-TBST, followed by an anti-mouse HRP-conjugated antibody (#1706516 Biorad). Chemiluminescence was detected with Amersham Imager 600 and band intensities were quantified using the built-in software. AAV production and intrathecal injection: Purified adeno-associated virus (AAV) or the peripheral neuron specific PHP.S (AAV-PHP.S) [K. Y. Chan et al., Nat Neurosci 20, 1172-1179 (2017)] was produced in HEK 293T cells (ATCC®), with the AAVpro® Purification Kit (All Serotypes) from TaKaRa (#6666). For each construct ten 15 cm plates were transfected with 20 μg of DNA (AAV-plasmid containing the construct of interest and two AASV9 or AAV-PHP.S helper plasmids) using jetPEI® (Polyplus) in DMEM medium without serum or antibiotics. […]

“shα3: AAV9 expressing an importin α3 targeting shRNA (SEQ ID NO: 8), intrathecal injection (DNA GATCCGGCTTTGACAAACATTGCATGAAGCTTGATGCAATGTTTGTCAAAGCCTTTTTT)” was tested, and the “paw withdrawal threshold (PWT), Von Frey test” value (SNI mice) was “recovery”, the “paw withdrawal threshold (PWT), Von Frey test” value (SNI mice; listed as anti-importin α3 shRNA) was “significant recovery of the paw withdrawal reflex” and the “impα3 protein level (western blot, GAPDH normalized)” value (importin α3) was “downregulation”.
